Experimental data taken from patent publication US20230312564A1, “AROMATIC RING-LACTAM COMPOUND, PREPARATION METHOD THEREFOR AND USE THEREOF” (SHANGHAI RINGENE BIOPHARMA CO., LTD., priority 2020, published 2023).
Where two headings read alike, the source gives them in different places.

Tests used:
ERK1/2 kinase = test system: T1, ERK1/2 kinase; experiment: ERK1/2 kinase (Carna) inhibitory activity, Caliper mobility shift; type: biochemical; details: for IC50: read-out: ERK½ IC50
T1 construct: fused on or other part: Carna's ERK products carry a GST tag by vendor knowledge
Procedure, shortened: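 Compounds tested from 10 μM top concentration, 3-fold dilutions to 10 points, in duplicate, in 1× kinase buffer; Caliper mobility-shift readout.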

Colo-205 cells = experiment: Colo-205 tumor cell proliferation, CCK-8, 72 hours; type: cell-based; details: for IC50: 72 hours, CCK-8, read-out: Colo-205 IC50; for cell proliferation inhibitory activity (in words): Colo-205
[1] = Liver microsomal metabolic stability, rat; type: in vitro ADME; details: 0.5 mg/mL microsomes, 1 μM compound, NADPH
Protocol: (§1) The reaction was stopped with tinidazole-containing acetonitrile at 0 min, 5 min, 10 min and 30 min, respectively. After vortexing for 10 min and centrifuging at 15,000 rmp for 10 min, 50 μL of the supernatant was injected into a 96-well plate. The metabolic stability of the compound was calculated by determining the relative reduction of the drug, calculated as half-life T1/2.

[2] = Liver microsomal metabolic stability, dog; type: in vitro ADME; details: 0.5 mg/mL microsomes, 1 μM compound, NADPH
Protocol: as §1

[3] = Liver microsomal metabolic stability, human; type: in vitro ADME; details: 0.5 mg/mL microsomes, 1 μM compound, NADPH
Protocol: as §1

[4] = Liver microsomal metabolic stability, mouse; type: in vitro ADME; details: 0.5 mg/mL microsomes, 1 μM compound, NADPH
Protocol: as §1

[5] = Liver microsomal stability, comparisons in words across species; type: in vitro ADME; details: for stability of different kinds of liver microsomes (in words): different species, versus the comparative compounds
Protocol: as §1

CYP1A2 = target: T2, CYP1A2 (Homo sapiens, UniProt P05177); experiment: Direct inhibition test (DI test) in human liver microsomes, CYP1A2
T2 sequence (P05177 1-516): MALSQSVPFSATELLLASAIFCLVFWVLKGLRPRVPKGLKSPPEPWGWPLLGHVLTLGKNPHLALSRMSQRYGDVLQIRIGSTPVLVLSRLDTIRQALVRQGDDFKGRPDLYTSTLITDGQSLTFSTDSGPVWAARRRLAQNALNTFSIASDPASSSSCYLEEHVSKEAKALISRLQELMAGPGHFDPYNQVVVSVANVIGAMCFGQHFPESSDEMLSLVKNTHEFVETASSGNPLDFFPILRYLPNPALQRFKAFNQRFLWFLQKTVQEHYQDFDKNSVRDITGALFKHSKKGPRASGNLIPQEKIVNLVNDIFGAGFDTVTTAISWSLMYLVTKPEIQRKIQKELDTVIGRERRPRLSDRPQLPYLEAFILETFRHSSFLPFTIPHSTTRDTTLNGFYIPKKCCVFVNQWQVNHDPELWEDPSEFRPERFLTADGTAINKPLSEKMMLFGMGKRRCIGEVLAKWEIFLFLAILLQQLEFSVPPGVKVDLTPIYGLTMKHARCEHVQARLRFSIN
Protocol: (§2) (2) Direct inhibition test (DI test): A system containing 100 μL of human liver microsomes (final concentration of 0.2 mg/mL) was subjected to a direct inhibition incubation, and the system contained NADPH (final concentration of 1 mM), 10 μM compound, positive inhibitor cocktail (10 μM ketoconazole, 10 μM quinidine, 100 μM sulfaphenazole, 10 μM α-naphthoflavone, 1,000 μM tranylcypromine), negative control (BPS of 0.1% DMSO), and mixed probe substrates (10 μM midazolam, 100 μM testosterone, 10 μM dextromethorphan, […], 100 μM phenacetin, 100 μM mephenytoin). After 20 minutes of incubation, the reaction was stopped. The relative activity of the enzyme was calculated by measuring the relative production of metabolites.

[6] = test system: Colo-205 transplanted tumor; experiment: Growth inhibition of nude mice Colo-205 transplanted tumor; type: in vivo; details: for effect on the tumor weight (in words) / tumor growth of Colo-205 transplanted tumor nude mice (in words): dose of 50 mg/kg or 25 mg/kg
Protocol: The tumor tissue in the vigorous growth phase was cut into about 1.5 mm^3 and inoculated subcutaneously in the right axilla of nude mice under sterile conditions. The diameter of subcutaneous transplanted tumors in nude mice was measured with a vernier caliper, and the mice were randomly divided into groups when the average tumor volume reached about 130 mm^3. The embodiment compounds (injection water containing 1% Tween 80 were configured to a desired concentration for later use) were orally administered daily at a given dose for three consecutive weeks, and the solvent control group was administered with the same amount of solvent. During the whole test, the diameter of transplanted tumor was measured twice a week, and the mice were weighed at the same time. The calculation formula of tumor volume (TV) is expressed as TV=1/2×a×b^2, wherein a and b represent length and width, respectively. The relative tumor volume (RTV) was calculated according to the measurement results, and the calculation formula is RTV=Vt/V0, wherein V0 is the tumor volume measured when administered in separate cages (i.e., d0), and Vt is the tumor volume at the time of each measurement.

[7] = In-vivo pharmacokinetic parameters in mice; set-up: species or system Balb-c mice
Protocol: (§3) Six male SPF grade SD rats or Balb-c mice (Shanghai Sipple-Bikai Laboratory Animal) were divided into two groups, and the tested compounds were prepared into appropriate solutions or suspensions; one group was administered intravenously (with a dose of 1 mg/kg), and the other group was administered orally (with a dose of 5 mg/kg). Blood samples were collected by jugular vein puncture, and each sample was collected with a volume of about 0.2 mL/time point, and heparin sodium was used for anticoagulation. The time points of blood collection were listed below: 5, 15 and 30 min […], 1, 2, 4, 6, 8 and 24 h after administration; the collected blood samples were placed on ice and centrifuged to separate plasma (centrifugation conditions: 8,000 rpm, 6 min, 2 to 8° C.), and the collected plasma was stored at −80° C. before analysis. Plasma samples were analyzed by LC-MS/MS.
(§4) The pharmacokinetic parameters such as AUC0-t, AUC0-∞, MRT0-∞, Cmax, Tmax, T1/2 and Vd of the tested compounds and their mean values and standard deviations were calculated by the pharmacokinetic calculation software WinNonlin5.2 non-compartmental model according to the plasma concentration data. In addition, the bioavailability (F) was calculated by the following formula.
(§5) For samples with concentrations below the lower limit of quantitation, while pharmacokinetic parameter calculations were performed, samples sampled before Cmax was reached should be calculated as a zero value and samples sampled after Cmax was reached should be calculated as below limit of quantitation (BLQ).

[8] = In-vivo pharmacokinetic parameters in SD rats
Protocol: as §3, §4, §5

CYP2C8 = CYP2C8 (Homo sapiens, UniProt P11712); experiment: Direct inhibition test (DI test) in human liver microsomes, CYP2C8; type: in vitro ADME
CYP2C19 = target: T3, CYP2C19 (Homo sapiens, UniProt P33261); experiment: Direct inhibition test (DI test) in human liver microsomes, CYP2C19; type: in vitro ADME
T3 construct: A system containing 100 μL of human liver microsomes; from tissue; host or cells: human liver microsomes
Protocol: as §2

CYP3A4 = target: T4, CYP3A4 (Homo sapiens, UniProt P08684); experiment: Direct inhibition test (DI test) in human liver microsomes, CYP3A4; type: in vitro ADME
T4 construct: A system containing 100 μL of human liver microsomes; from tissue; host or cells: human liver microsomes
Protocol: as §2

CYP2D6 = target: T5, CYP2D6 (Homo sapiens, UniProt P10635); experiment: Direct inhibition test (DI test) in human liver microsomes, CYP2D6; type: in vitro ADME
T5 construct: A system containing 100 μL of human liver microsomes; from tissue; host or cells: human liver microsomes
Protocol: as §2

[9] = male, Balb-c, mouse, plasma, IV, 1 mg/kg
[10] = male, Balb-c, mouse, plasma, PO, 5 mg/kg
[11] = male, rat, plasma, 1 mg/kg, IV, 1 mpk
[12] = male, rat, plasma, 5 mg/kg, PO, 5 mpk
[13] = Homo sapiens, COLO 205, numeric values

T4 sequence (P08684 whole entry): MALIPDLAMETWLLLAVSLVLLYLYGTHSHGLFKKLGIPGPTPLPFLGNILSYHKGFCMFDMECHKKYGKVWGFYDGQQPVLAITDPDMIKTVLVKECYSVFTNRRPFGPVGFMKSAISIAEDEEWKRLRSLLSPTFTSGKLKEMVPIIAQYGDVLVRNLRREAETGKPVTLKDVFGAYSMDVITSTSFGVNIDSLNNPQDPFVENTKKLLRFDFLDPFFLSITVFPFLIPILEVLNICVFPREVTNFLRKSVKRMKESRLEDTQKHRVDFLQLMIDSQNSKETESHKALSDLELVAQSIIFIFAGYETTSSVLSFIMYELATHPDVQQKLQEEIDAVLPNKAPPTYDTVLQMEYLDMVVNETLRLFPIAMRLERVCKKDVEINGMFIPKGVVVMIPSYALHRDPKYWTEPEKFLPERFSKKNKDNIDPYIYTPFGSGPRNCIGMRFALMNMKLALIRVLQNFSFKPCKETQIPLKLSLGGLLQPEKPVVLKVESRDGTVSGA
T3 sequence (P33261 whole entry): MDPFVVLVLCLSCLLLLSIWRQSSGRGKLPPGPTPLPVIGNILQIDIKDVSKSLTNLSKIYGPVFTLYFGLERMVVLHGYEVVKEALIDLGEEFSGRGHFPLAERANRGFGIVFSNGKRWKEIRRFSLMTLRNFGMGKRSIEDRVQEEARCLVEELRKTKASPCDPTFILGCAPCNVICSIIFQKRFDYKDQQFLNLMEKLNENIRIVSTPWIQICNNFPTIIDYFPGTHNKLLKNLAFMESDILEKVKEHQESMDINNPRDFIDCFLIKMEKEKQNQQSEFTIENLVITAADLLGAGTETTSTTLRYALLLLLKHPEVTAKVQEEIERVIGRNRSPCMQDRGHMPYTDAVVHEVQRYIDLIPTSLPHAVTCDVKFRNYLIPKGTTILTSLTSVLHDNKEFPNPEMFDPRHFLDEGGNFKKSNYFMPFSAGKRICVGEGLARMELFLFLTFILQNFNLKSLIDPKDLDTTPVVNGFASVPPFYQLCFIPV
Sequence of CYP2C8 (P11712 whole entry): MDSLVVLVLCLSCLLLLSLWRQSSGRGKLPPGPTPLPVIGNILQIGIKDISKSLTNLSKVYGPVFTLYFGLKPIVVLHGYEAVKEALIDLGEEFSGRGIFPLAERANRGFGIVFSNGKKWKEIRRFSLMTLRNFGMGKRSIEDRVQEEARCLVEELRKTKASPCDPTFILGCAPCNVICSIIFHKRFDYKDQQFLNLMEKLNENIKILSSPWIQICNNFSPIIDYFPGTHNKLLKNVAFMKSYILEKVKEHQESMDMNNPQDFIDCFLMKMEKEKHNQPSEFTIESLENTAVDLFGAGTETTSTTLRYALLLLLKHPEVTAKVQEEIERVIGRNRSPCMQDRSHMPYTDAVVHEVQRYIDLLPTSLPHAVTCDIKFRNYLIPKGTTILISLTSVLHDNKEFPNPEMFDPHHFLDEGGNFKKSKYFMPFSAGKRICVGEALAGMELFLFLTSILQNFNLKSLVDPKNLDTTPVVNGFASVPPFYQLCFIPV
T5 sequence (P10635 whole entry): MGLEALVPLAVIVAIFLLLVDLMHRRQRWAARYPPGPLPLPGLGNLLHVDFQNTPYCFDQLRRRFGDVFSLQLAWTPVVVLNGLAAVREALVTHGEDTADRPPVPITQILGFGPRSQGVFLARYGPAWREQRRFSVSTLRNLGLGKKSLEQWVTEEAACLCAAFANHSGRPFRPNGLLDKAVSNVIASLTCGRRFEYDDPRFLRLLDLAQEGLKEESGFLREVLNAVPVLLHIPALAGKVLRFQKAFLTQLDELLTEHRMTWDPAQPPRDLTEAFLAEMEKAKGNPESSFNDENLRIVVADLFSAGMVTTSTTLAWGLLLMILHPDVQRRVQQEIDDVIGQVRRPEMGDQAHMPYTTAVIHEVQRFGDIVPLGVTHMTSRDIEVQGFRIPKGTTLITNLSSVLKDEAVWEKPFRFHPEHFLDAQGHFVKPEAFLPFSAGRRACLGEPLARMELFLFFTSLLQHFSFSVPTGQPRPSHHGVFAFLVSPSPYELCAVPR

Cc1cccc([C@@H](CO)NC(=O)[C@@H](C)N2Cc3ccc(-c4nc(NC5CCOCC5)ncc4F)c(F)c3C2=O)c1 [Embodiment 31]
enzyme inhibitory activity (in words) (ERK1/2 kinase): extremely strong enzyme inhibitory activity | IC50 (ERK1/2 kinase; numeric values): 0.9 nM | IC50 (Colo-205 cells; numeric values): 17.4 nM | cell proliferation inhibitory activity (in words) (Colo-205 cells): strong cell proliferation inhibitory activity | Liver microsomal stability T1/2 [1]: 17 min | Liver microsomal stability T1/2 [2]: 122 min | Liver microsomal stability T1/2 [3]: 13 min | Liver microsomal stability T1/2 [4]: 17 min | stability of different kinds of liver microsomes (in words) [5]: significant advantages | IC50 (CYP1A2; microsomes): > 10000 nM | effect on the tumor weight (in words) [6]: no significant effect on the tumor weight | tumor growth of Colo-205 transplanted tumor nude mice (in words) [6]: significantly inhibited the tumor growth

COc1cc(F)cc([C@@H](CO)NC(=O)[C@@H](C)N2Cc3ccc(-c4nc(NC5CCOCC5)ncc4Cl)c(F)c3C2=O)c1 [Embodiment 33]
enzyme inhibitory activity (in words) (ERK1/2 kinase): extremely strong enzyme inhibitory activity | IC50 (ERK1/2 kinase; numeric values): 0.9 nM | IC50 (Colo-205 cells; numeric values): 14.1 nM | cell proliferation inhibitory activity (in words) (Colo-205 cells): strong cell proliferation inhibitory activity | Liver microsomal stability T1/2 [1]: 17 min | Liver microsomal stability T1/2 [2]: 51 min | Liver microsomal stability T1/2 [3]: 18 min | Liver microsomal stability T1/2 [4]: 10 min | stability in liver microsomes (in words) ([5]; mouse, rat and human, compared with comparative compound 5): significantly improved | IC50 (CYP1A2; microsomes): > 10000 nM

C[C@H](C(=O)N[C@H](CO)c1cccc(Cl)c1)N1Cc2ccc(-c3nc(NC4CCOCC4)ncc3F)c(F)c2C1=O [Embodiment 37]
IC50 (ERK1/2 kinase; numeric values): < 1 nM | IC50 (Colo-205 cells; numeric values): 4.4 nM | cell proliferation inhibitory activity (in words) (Colo-205 cells): strong cell proliferation inhibitory activity | Liver microsomal stability T1/2 [1]: 14 min | Liver microsomal stability T1/2 [2]: 27 min | Liver microsomal stability T1/2 [3]: 11 min | Liver microsomal stability T1/2 [4]: 12 min | stability of different kinds of liver microsomes (in words) [5]: significant advantages | F ([7]; PO 5 mg/kg vs IV 1 mg/kg): 54% | AUC(0-inf) [7, 9]: 0.586 µM·h | AUC(0-t) [7, 9]: 0.583 µM·h | MRT inf [7, 9]: 18 min | clearance [7, 9]: 50 mL/min/kg | half-life [7, 9]: 48 min | Vd ([7]; male, Balb-c, mouse, plasma, IV, 1 mg/kg, read-out: Vss): 0.9 L/kg | AUC(0-inf) [7, 10]: 1.58 µM·h | AUC(0-t) [7, 10]: 1.57 µM·h | Cmax [7, 10]: 1680 nM | Tmax [7, 10]: 18 min | half-life [7, 10]: 66 min | F ([8]; PO 5 mpk vs IV 1 mpk): 17% | AUC(0-inf) [8, 11]: 0.538 µM·h | AUC(0-t) [8, 11]: 0.536 µM·h | MRT inf [8, 11]: 18 min | clearance [8, 11]: 54 mL/min/kg | half-life [8, 11]: 48 min | Vd ([8]; male, rat, plasma, 1 mg/kg, IV, 1 mpk, read-out: Vss): 0.8 L/kg | AUC(0-inf) [8, 12]: 0.452 µM·h | AUC(0-t) [8, 12]: 0.446 µM·h | Cmax [8, 12]: 396 nM | Tmax [8, 12]: 18 min | half-life [8, 12]: 66 min | T/C ([6]; 50 mg/kg, qdx21, po): 28.3% | Initial weight (D0) ([6]; 50 mg/kg, qdx21, po, D0): 23.3 g | Terminal weight (D21) ([6]; 50 mg/kg, qdx21, po, D21): 24.5 g | Initial tumor volume ([6]; 50 mg/kg, qdx21, po, initial): 95 ± 19 mm^3 | Terminal tumor volume ([6]; 50 mg/kg, qdx21, po, terminal): 285 ± 137 mm^3 | effect on the tumor weight (in words) [6]: no significant effect on the tumor weight | tumor growth of Colo-205 transplanted tumor nude mice (in words) [6]: significantly inhibited the tumor growth

COc1cc(F)cc([C@@H](CO)NC(=O)[C@@H](C)N2Cc3ccc(-c4nc(NC5CCOC5)ncc4F)c(F)c3C2=O)c1 (stereo partly drawn) [Embodiment 42]
IC50 (ERK1/2 kinase; numeric values): < 1 nM | cell proliferation inhibitory activity (in words) (Colo-205 cells): strong cell proliferation inhibitory activity | IC50 (Colo-205 cells; Homo sapiens, COLO 205, class symbols): < 100 nM | IC50 (CYP1A2): > 10000 nM | IC50 at 20 min (CYP2C8): > 10000 nM | IC50 (CYP2C19): > 10000 nM | IC50 (CYP3A4): > 10000 nM | IC50 (CYP2D6): > 10000 nM

COc1cc(F)cc([C@@H](CO)NC(=O)[C@@H](C)N2Cc3ccc(-c4nc(NC5CCC(F)(F)CC5)ncc4F)c(F)c3C2=O)c1 [Embodiment 44]
IC50 (ERK1/2 kinase; class symbols): < 10 nM | cell proliferation inhibitory activity (in words) (Colo-205 cells): strong cell proliferation inhibitory activity | IC50 (Colo-205 cells; [13]): 18.3 nM | IC50 (CYP1A2): > 10000 nM | IC50 at 20 min (CYP2C8): > 10000 nM | IC50 (CYP2C19): > 10000 nM | IC50 (CYP3A4): > 10000 nM | IC50 (CYP2D6): > 10000 nM

C[C@H](C(=O)N[C@H](CO)c1cccc(F)c1)N1Cc2ccc(-c3nc(NC4CCOCC4)ncc3F)c(F)c2C1=O [Embodiment 46]
IC50 (ERK1/2 kinase; numeric values): < 1 nM | IC50 (Colo-205 cells; [13]): 16.2 nM | IC50 (CYP1A2): > 10000 nM | IC50 at 20 min (CYP2C8): > 10000 nM | IC50 (CYP2C19): > 10000 nM | IC50 (CYP3A4): > 10000 nM | IC50 (CYP2D6): > 10000 nM
